Experimental data taken from patent publication US12091683B2, “Method for producing platelets, method for producing platelet product, and method for producing blood product” (MEGAKARYON CORPORATION, priority 2017, dated 2024).

Key:
[1] = tested on: platelets produced from immortalized megakaryocyte cell lines (SeV2-MKCL); test: Bioactivity of platelets produced, MFIs of CD62p and PAC-1 by flow cytometer; type: cell-based, human
Protocol: The bioactivity of platelets obtained in Example 1(2) was measured using a flow cytometer. Specifically, 900 μL of diluent was added to a 1.5-mL microtube, and 100 μL of culture solution after platelet production was added and mixed. Then, 200 μL of obtained solution was poured into a FACS tube, stained by adding the labeled antibody shown below, and the MFIs of CD62p and PAC-1 in platelets were analyzed using the flow cytometer. The same analysis was also performed using the flow cytometer in NC, and then the increase percentage of the MFIs of CD62p and PAC-1 in the respective samples were calculated with reference to the MFIs of CD62p and PAC-1 in NC.
FIGS. 2A and 2B are graphs each showing the increase percentage of MFIs of CD62p and PAC-1. […] In addition, the expression levels of CD62p and PAC-1 were increased in a concentration-dependent manner.
The increase percentages of MFIs of CD62p and PAC-1 were calculated in the same manner as in Example 1(3) except that platelet was produced using a platelet production medium being added with cysteine at a predetermined concentration (1, 5, or 10 mmol/L) instead of glycine. The platelet production medium contains 0.6 to 0.8 mmol/L cysteine. Therefore, the concentration of the cysteine in the platelet production medium after being added with cysteine are about 2 to about 11 mmol/L. As a control, the increase percentage of MFIs of CD62p and PAC-1 was calculated in the same manner except that no cysteine was added.

[2] = tested on: immortalized megakaryocyte cell line from human iPS cells (NIH5); settings: 4.0×10^5 (×4) or 6.0×10^5 cells/mL (×6), 5 days, glycine added, compared with control in high-density culture, FIG. 6A
Protocol: (§1) Immortalized megakaryocyte cell lines were induced in the same manner as in Examples 1(1-1) to (1-6) except that human iPS cells (NIH5 and NIH8) were used instead of the human iPS cells (TKDN SeV2). As to the obtained immortalized megakaryocyte cell line, the number of platelets was counted and the platelet concentration was calculated in the same manner as in Example 1(2) except that the cell dissemination density was set to 4.0×10^5 cells/mL (×4) or 6.0×10^5 cells/mL (×6) and the culture was performed for 5 days. As a control, the platelet concentration was calculated in the same manner except that the cell dissemination density was set to 1.0×10^5 cells/mL (×1), 4.0×10^5 cells/mL (×4), or 6.0×10^5 cells/mL (×6), and the glycine-non-added platelet production medium was used.
(§2) FIGS. 6A and 6B are graphs each showing the platelet concentration. […] In FIGS. 6A and 6B, the horizontal axis indicates the condition of cell dissemination density and glycine concentration, and the vertical axis indicates the platelet concentration.

[3] = tested on: immortalized megakaryocyte cell line from human iPS cells (NIH8); settings: 4.0×10^5 (×4) or 6.0×10^5 cells/mL (×6), 5 days, glycine added, compared with control in high-density culture, FIG. 6B
Protocol: as §1, §2

[4] = tested on: immortalized megakaryocyte cell lines (SeV2-MKCL)
Description: The forced expression was canceled by performing culturing in a medium not containing DOX. Specifically, the immortalized megakaryocyte cell lines (SeV2-MKCL) obtained using the method (1) were washed twice with PBS (−), and suspended in a following platelet producing medium. The cell dissemination density was set to 4.0×10^5 cells/mL (×4).
The platelet producing medium was obtained by adding the components listed below to a basal medium IMDM (concentration means final concentration).

[5] = tested on: platelets produced from immortalized megakaryocyte cell lines (SeV2-MKCL); settings: 10 mmol/L glycine and 20 U/mL heparin added; dissemination density ×1, ×2, ×3, ×4, ×8; compared with controls; FIG. 3
Protocol: In addition, the deterioration state of platelets obtained was evaluated based on the positive rate of Annexin V. Specifically, in measurement of the Annexin V positive rate in platelets, 100 μL of the culture solution after platelet production was poured into a FACS tube, and the solution was stained by adding the following labeled antibody and protein, diluted to 5 times with an Annexin V binding buffer (BD Biosciences) immediately before flow cytometer analysis, and then subjected to analysis.
1.0 μL anti-CD41a antibody APC label (Bio Legend 303710)
1.0 μL anti-CD42b antibody PE label (Bio Legend 303906)
5 μL Annexin V FITC label (BD Biosciences 556419)

[6] = tested on: immortalized megakaryocyte cell line from iPS cells induced from SeV2-MKCL; settings: high-density culture (×4), compared with control in high-density culture
Description: iPS cells were induced by introducing c-MYC, OCT3/4, SOX2, and KLF4 into immortalized megakaryocyte cell line (SeV2-MKCL) obtained in Example 1(1-6) by the Sendai virus vector according to the method described in WO 2010/134526. Next, immortalized megakaryocyte cell lines were induced in the same manner as in Examples 1(1-1) to (1-6) except that the induced iPS cells were used instead of the human iPS cells (TKDN SeV2). Further, as to the obtained immortalized megakaryocyte cell line, the number of platelets was counted and the platelet concentration was calculated in the same manner as in Example 1(2). Then, the P/M ratio was calculated based on the megakaryocyte cell density (dissemination density) at the start of production of platelets and the platelet concentration.

[7] = high-density culture (×4), added glycine 5, 10, 20, 40 mmol/L, compared to control without glycine, FIGS. 2A, 2B
[8] = high-density culture, added cysteine 1, 5 or 10 mmol/L, compared to control (NC) without cysteine, FIG. 4

SMILES: NCC(=O)O [glycine]
- expression level of CD62p (increase percentage of MFI) [1, 7]: increased at all glycine concentrations
- expression level of PAC-1 (increase percentage of MFI) [1, 7]: increased at all glycine concentrations
- platelet concentration [2]: increased at any dissemination density
- platelet concentration [3]: increased at any dissemination density
- number of platelets ([4]; 4.0×10^5 cells/mL (×4), added glycine 1, 5, 10, 20 or 40 mmol/L, 6 days, compared with high-density culture using glycine-non-added medium, FIGS. 1A, 1B): increased at all concentrations
- ability of megakaryocyte to produce platelets ([4]; glycine concentration at the start of production of platelets 11 to 31 mmol/L or 11 to 21 mmol/L, high-density culture (×4)): further improved
- deterioration of platelet (percentage of Annexin V-positive cells) [5]: suppressed
- number of platelets [5]: increased
- ability of megakaryocyte to produce platelets (P/M ratio) ([6]; any glycine concentration, FIG. 5A): improved
- platelet concentration ([6]; FIG. 5B): increased at any glycine concentration

SMILES: N[C@@H](CS)C(=O)O [cysteine]
- expression level of CD62p (increase percentage of MFI) [1, 8]: increased at all cysteine concentrations
- expression level of PAC-1 (increase percentage of MFI) [1, 8]: increased at all cysteine concentrations
